In PubChem BioAssay AID743359 (Molecular Libraries Program, Specialized Chemistry Center, …, 2014) one finds IC50 data, which are given here for 67 compounds.

Calls of active or inactive are those of the source.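 The calls were made as follows: active = compounds whose half-maximal inhibitory concentration IC50 is 20 µM or lower; inactive = the rest.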 Some results are limits rather than exact numbers.

This experiment deals with isolated mouse liver mitochondria, Ca2+ swelling, A540 20 min. The experiment is described as follows: mtPTP inhibitors blocking calcium-induced swelling, dose response, dry powder samples, uHTS hits, absorbance (AID 743359).
`COc1ccc(Cl)c(C(=O)Nc2ccc(CN3CCN(C)CC3)cc2)c1`: the IC50 is > 50 µM (inactive). As for `CN1CCN(Cc2ccc(NS(=O)(=O)c3cccc(Cl)c3)cc2)CC1`, the figure is > 50 µM (inactive); as for `O=C(Nc1cc(Cl)ccc1Cl)c1cc(-c2cccc(O)c2)on1`, 1.6 µM; as for `CN1CCN(c2ccccc2NC(=O)c2ccc(OCc3ccccc3)cc2)CC1`, 2.3 µM. Consider `COc1ccc(Cl)c(C(=O)Nc2ccc(CCN3CCOCC3)cc2)c1`, for which the IC50 was > 50 µM (inactive). For the compound `O=C(Nc1ccc(CN2CCCCC2)cc1)c1cc(OCc2ccccc2)ccc1Cl`, the IC50 is 2.44 µM. Take `CN1CCN(c2ccc(NS(=O)(=O)c3ccc(F)c(Cl)c3)cc2)CC1`: the IC50 was > 50 µM (inactive). As for `COc1ccc(C(=O)CCN2CCCC(C)C2)cc1` (configuration not stated), the figure is 38 µM (inactive); as for `CN1CCN(c2ccc(NC(=O)c3ccc(OCc4ccccc4)cc3)cc2)CC1`, > 50 µM (inactive); as for `Cc1cc(NC(=O)c2ccc(-n3cnnc3)cc2)no1`, > 50 µM (inactive). The same measure for `COc1ccc(Cl)cc1C(=O)Nc1ccccc1`: 6.35 µM (inactive); for `COc1ccc(Cl)cc1C(=O)Nc1cccc(CN2CCN(C(=O)OC(C)(C)C)CC2)c1`: > 50 µM (inactive). The same measure for `O=C(Nc1ccc(N2CCCCC2)cc1)c1cccc(OCc2ccccc2)c1`: > 50 µM (inactive); for `CN1CCN(CCc2ccc(NS(=O)(=O)c3cccc(Cl)c3)cc2)CC1`: > 50 µM (inactive); for `O=C(Nc1ccccc1OCc1ccccc1)c1cc(-c2cccc(O)c2)on1`: > 50 µM (inactive). Turning to `O=C(Nc1cc(Cl)cc(Cl)c1)c1cc(-c2cccc(O)c2)on1`, the 50% inhibitory concentration (IC50) was less than 0.391 µM. As for `COc1ccc(Cl)cc1C(=O)Nc1ccc(CN2CCNCC2)cc1`, the figure is 2.24 µM; as for `COc1ccc(Cl)c(C(=O)Nc2ccc(CN3CCN(C(=O)OC(C)(C)C)CC3)cc2)c1`, 18.2 µM (inactive); as for `CCCc1cc(C(=O)Nc2c(F)cc(F)cc2Br)no1`, 4.96 µM.

Turning to `COc1ccc(Cl)c(C(=O)Nc2ccc(CCN3CCCCC3)cc2)c1`, the IC50 is > 50 µM (inactive).

On to `COc1ccc(Cl)cc1C(=O)Nc1ccc(CN2CCN(C(=O)OC(C)(C)C)CC2)cc1`, for which the IC50 is 14.9 µM.

Consider `O=C(Nc1cccc(Cl)c1)c1cc(-c2cccc(O)c2)on1`, for which the IC50 was less than 0.391 µM. As for `O=C(Nc1ccc(CN2CCCCC2)cc1)c1ccc(Cl)c(OCc2ccccc2)c1`, the figure is less than 0.391 µM; as for `COc1ccc(Cl)cc1S(=O)(=O)Nc1ccc(CN2CCCCC2)cc1`, > 50 µM (inactive); as for `CN1CCN(c2ccc(NS(=O)(=O)c3cc(Cl)cc(Cl)c3)cc2)CC1`, 44.9 µM (inactive). As for `O=C(Nc1ccc(Cl)cc1)c1cc(-c2ccccc2)on1`, the figure is > 50 µM (inactive); as for `CN1CCN(CCc2ccc(NC(=O)c3cccc(OCc4ccccc4)c3)cc2)CC1`, 3.84 µM. As for `C[C@@H]1CCC[C@H](C)N1CCCC(=O)c1ccc(Br)cc1`, the figure is > 50 µM (inactive). With `O=S(=O)(Nc1ccc(CN2CCCCC2)cc1)c1ccc(F)c(Cl)c1`, the IC50 is > 50 µM (inactive). The same measure for `COc1ccc(Cl)cc1C(=O)Nc1ccc(N(C)C)cc1`: 10.1 µM; for `O=C(Nc1ccc(CN2CCCCC2)cc1)c1cc(Cl)ccc1O`: > 50 µM (inactive); for `COc1ccc(Cl)cc1C(=O)Nc1ccc(CCN2CCN(C)CC2)cc1`: 10.7 µM. The same measure for `COc1ccc(Cl)c(C(=O)Nc2ccc(CCN3CCN(C(=O)OC(C)(C)C)CC3)cc2)c1`: > 50 µM (inactive); for `COc1ccc(Cl)c(C(=O)Nc2cccc(CN3CCN(C(=O)OC(C)(C)C)CC3)c2)c1`: > 50 µM (inactive). The same measure for `O=C(Nc1cccc(F)c1)c1cc(-c2cccc(O)c2)on1`: 4.61 µM. For `COc1ccc(Cl)cc1C(=O)Nc1ccc(CCN2CCCCC2)cc1`, the concentration for half-maximal inhibition (IC50) was 6 µM. The same measure for `CCN(CC)c1ccc(NC(=O)c2ccc(OC)c(Cl)c2)cc1`: > 50 µM (inactive). The same measure for `COc1ccccc1C(=O)Nc1ccc(C(=O)N2CCCCC2)cc1`: > 50 µM (inactive); for `COc1ccc(Cl)cc1C(=O)Nc1ccc(CCN2CCNCC2)cc1`: 5.28 µM. The same measure for `O=S(=O)(Nc1ccc(CN2CCCCC2)cc1)c1cc(Cl)cc(Cl)c1`: > 50 µM (inactive); for `CC(C)c1cc(C(=O)Nc2ccc(F)cc2F)no1`: 24 µM (inactive). As for `O=C(Nc1ccc(F)cc1F)c1cc(-c2ccccc2)on1`, the IC50 was > 50 µM (inactive). As for `CCCc1cc(C(=O)Nc2ccc(Br)cc2)no1`, the figure is > 50 µM (inactive); as for `COc1ccc(Cl)cc1C(=O)Nc1ccc(CCN2CCN(C(=O)OC(C)(C)C)CC2)cc1`, 20.1 µM; as for `CCc1ccccc1NC(=O)c1cc(-c2ccccc2)on1`, > 50 µM (inactive). The same measure for `Cc1cc(NC(=O)c2cc(-c3ccc(F)cc3)on2)no1`: > 50 µM (inactive). The same measure for `Cc1ccc(NC(=O)c2cc(-c3cccc(O)c3)on2)cc1Cl`: 0.83 µM. Turning to `COc1ccc(Cl)cc1C(=O)Nc1ccc(N2CCOCC2)cc1`, the IC50 was > 50 µM (inactive). For `Cc1ccc(Cl)cc1NC(=O)c1cc(-c2cccc(O)c2)on1`, the IC50 was less than 0.391 µM. Turning to `O=C(Nc1ccc(CN2CCCCC2)cc1)c1cccc(OCc2ccccc2)c1`, the concentration for half-maximal inhibition (IC50) is 0.95 µM. The same measure for `COc1ccc(Cl)c(C(=O)Nc2ccc(CN3CCOCC3)cc2)c1`: > 50 µM (inactive). As for `CN1CCN(Cc2ccc(NC(=O)c3cccc(OCc4ccccc4)c3)cc2)CC1`, the figure is 3.31 µM; as for `COc1ccc(NC(=O)c2cc(-c3ccc(Cl)cc3)on2)cc1Cl`, > 50 µM (inactive); as for `COc1ccc(Cl)cc1C(=O)Nc1ccc(CN2CCN(C)CC2)cc1`, 13.5 µM. The same measure for `COc1ccc(Cl)cc1C(=O)Nc1ccc(CN2CCOCC2)cc1`: 15.1 µM; for `CN1CCN(Cc2ccc(NS(=O)(=O)c3ccc(F)c(Cl)c3)cc2)CC1`: > 50 µM (inactive). As for `COc1c(Cl)cccc1NC(=O)c1cc(-c2cccc(O)c2)on1`, the IC50 was 27.6 µM (inactive). The same measure for `CN1CCN(c2ccc(NC(=O)c3cccc(OCc4ccccc4)c3)cc2)CC1`: 1.92 µM; for `O=S(=O)(Nc1ccc(CCN2CCCCC2)cc1)c1cccc(Cl)c1`: > 50 µM (inactive).

In the case of `O=C(Nc1cccc(Cl)c1Cl)c1cc(-c2cccc(O)c2)on1`, the half-inhibitory concentration (IC50) is 10.4 µM.

Turning to `COc1ccc(Cl)cc1C(=O)Nc1ccc(N2CCN(C)CC2)cc1`, the half-maximal inhibitory concentration (IC50) is 6.13 µM.

In the case of `CN1CCN(Cc2ccc(NS(=O)(=O)c3cc(Cl)cc(Cl)c3)cc2)CC1`, the IC50 was 23.3 µM (inactive). In the case of `O=C(Nc1ccc(CN2CCCCC2)cc1)c1cc(Cl)cc(OCc2ccccc2)c1`, the IC50 is less than 0.391 µM. The same measure for `COc1ccc(Cl)c(C(=O)Nc2ccc(CCN3CCN(C)CC3)cc2)c1`: > 50 µM (inactive); for `COc1ccc(Cl)cc1C(=O)Nc1ccc(CN2CCCCC2)cc1`: 1.72 µM; for `COc1ccc(Cl)cc1C(=O)Nc1cccc(CN2CCNCC2)c1`: 4.74 µM. The same measure for `O=C(Nc1cccc(Cl)c1)c1cc(-c2ccccc2)on1`: 47.2 µM (inactive).

Usually IC50 stands for the concentration at which inhibition is half-maximal.
